Laboratory results: patent EP0723771A2, “Agent and process for permanent hair waving” (Wella Aktiengesellschaft, priority 1995, dated 1996)

Details: lower pH values (pH = 7 or 8); conclusion from Tabelle 1
Procedure: Zum Vergleich der Wellwirksamkeit wurden an blondierten Haarsträhnen aus mitteleuropäischem Haar Wellstabilitäten ermittelt. Hierzu wurden 16,5 Zentimeter lange, aus etwa 100 Haaren bestehende Haarsträhnen auf Wickler mit einem Innendurchmesser von 3 Millimetern gewickelt und mit einer 87 mmol Reduktionsmittel pro 100 g Lösung enthaltenden, auf den jeweiligen pH-Wert eingestellten, Reduktionsmittellösung bei 50 Grad Celsius 20 Minuten lang behandelt, wobei eine Menge von 1,2 ml Reduktionsmittellösung pro Gramm Haarsträhne verwendet wurde.
Anschließend wurde das Haar mit einer 3-prozentigen wäßrigen Wasserstoffperoxidlösung oxidativ nachbehandelt, getrocknet und sodann 4 Stunden lang in Wasser ausgehängt. Im Anschluß hieran wurde die Wellstabilität bestimmt.
Die Wellstabilitäten wurden hierbei nach der folgenden Formel ermittelt: [formula] I0 = Gesamtlänge der nicht umgeformten, gestreckten Strähne (16,5 Zentimeter) It = Länge der abgewickelten, ausgehängten Strähne nach 240 Minuten I1 = Länge der umgeformten, aufgewickelten Strähne bei einem Wickelinnendurchmesser von 3 mm (I1 = 35 Millimeter)
Als Reduktionsmittel wurden Cysteamin (Formel (I) mit R = H) und N-Mesylcysteamin (Formel (I) mit R = SO2CH3) sowie als Vergleichsstandard eine auf pH = 9 eingestellte Glycerinmonothioglycolat-Lösung (Wellstabilität = 100 %) verwendet. […]

Structure (SMILES): CS(=O)(=O)NCCS [R = -SO2-CH3, N-2-Mercaptoethylmethansulfonsäureamid]
- Wellwirksamkeit gegenüber Cysteamin: signifikant höhere Wellwirksamkeit
